Laboratory results taken from patent US20240287093A1, “HIGH ACTIVITY STING PROTEIN AGONIST” (ADLAI NORTYE BIOPHARMA CO., LTD., priority 2018, published 2024).
pEC50: −log10 of the molar value.

Columns and labels:
Format in all cases: cell-based
STING = molecular target: T1, STING (Homo sapiens, UniProt Q86WV6, G230A/H232R/R293Q/R71H); assay: IFNβ release from THP1 by STING activation (hIFNβ ELISA); conditions: THP1 cells, 24 h, IFN-β in supernatant; inactive = IFNβ not detected at the maximum concentration of compounds
T1 construct: THP1 was purchased from National Collection of Authenticated Cell Cultures (Cat #TCHu 57); host or cells: THP1
T1 sequence (Q86WV6 whole entry R71H/G230A/H232R/R293Q): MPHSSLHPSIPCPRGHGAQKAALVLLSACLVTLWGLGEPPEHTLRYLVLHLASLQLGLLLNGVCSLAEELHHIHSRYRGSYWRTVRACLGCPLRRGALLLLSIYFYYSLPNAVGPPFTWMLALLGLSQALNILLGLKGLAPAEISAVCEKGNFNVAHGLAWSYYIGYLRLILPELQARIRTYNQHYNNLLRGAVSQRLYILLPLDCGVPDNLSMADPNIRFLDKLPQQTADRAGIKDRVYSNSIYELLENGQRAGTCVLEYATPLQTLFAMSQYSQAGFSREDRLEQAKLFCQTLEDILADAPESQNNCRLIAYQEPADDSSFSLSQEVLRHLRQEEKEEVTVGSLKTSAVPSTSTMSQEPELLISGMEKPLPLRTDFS
Method in brief: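 THP1 cells from log-phase culture, suspended at 2×10^6 cells/ml, were treated with an 8-point, 3-fold compound series (0.2% DMSO final) for 24 h at 37°C, 5% CO2. Secreted IFN-β in supernatant was quantified by human IFNβ ELISA, and EC50 was obtained by curve fitting.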

STING variants (HAQ) = molecular target: T2, STING variants (HAQ) (Homo sapiens, UniProt Q86WV6, G230A/R293Q/R71H); assay: SEAP reporter assay in HEK-Blue ISG KO-STING cells transfected with STING HAQ variant (Method 2, 0.0625 ng vector); conditions: compound concentration 5 (mM as printed); 24 h; SEAP signal ratio to 0.5% DMSO
T2 construct: host or cells: HEK-Blue ISG KO-STING cells (Invivogen, hkb-kostg)
T2 sequence (Q86WV6 whole entry R71H/G230A/R293Q): as the sequence (Q86WV6 whole entry R71H/G230A/H232R/R293Q) above, with R232H counted along it
Text: (§1) Example II: STING Variants (WT & HAQ) Activation by Compounds in HEK-Blue™ ISG KO-STING Cells (Method 2)
(§2) Activation of STING can be determined using a SEAP reporter assay in HEK-Blue™ ISG KO-STING cells (Invivogen, cat #hkb-kostg) transfected with plasmids expressing STING variants (WT & HAQ) (referred to WO2017/175147A1). STING variants (WT & HAQ) vector were constructed based on STING-232H vector (Origene, RC208418). GFP vector (VT2069) was bought from Youbio. The detailed protocol as follows: HEK-Blue™ ISG KO-STING cells were harvest and seeding into 96 well plate and the final cell number was 0.8×10^5 cells/well. Transfections were prepared using Lipofectamine 2000 (Invitrogen, Cat #11668-027) following the manufacturer's instructions (Lipo2000:DNA=1:10), 20 ul of transfection suspension containing 1 ng (WT variant) or 0.0625 ng (HAQ variant) STING vector was added to cell culture plate and incubated at 37° C., 5% CO2 for 24 h. After 24 hours incubation, compounds were added at proper concentration, the final DMSO concentration was 0.5%. After 24h incubation, the supernatant was collected to detect SEAP signal using Great EscAPe SEAP chemiluminescence KIT (Clontech, cat #631738) and cells were collected to detect cell viability using CellTiter-Glo Luminescent Cell Viability Assay(Promega, cat #G7573) following the manufacturer's instructions. The data were described by the ratio of the stimulating signal of compounds to 0.5% DMSO.

STING variants (WT) = molecular target: T3, STING variants (WT) (Homo sapiens, UniProt Q86WV6); assay: SEAP reporter assay in HEK-Blue ISG KO-STING cells transfected with STING WT variant (Method 2, 1 ng vector); conditions: compound concentration 2.5 (mM as printed); 24 h; SEAP signal ratio to 0.5% DMSO
T3 construct: host or cells: HEK-Blue ISG KO-STING cells (Invivogen, hkb-kostg)
Text: as §1, §2

| Structure (SMILES) | pEC50 (STING) | Fold change related to DMSO control, HAQ (STING variants (HAQ)) | Fold change related to DMSO control, WT (STING variants (WT)) | hIFNβ ELISA (EC50, μM) (STING) |
| --- | --- | --- | --- | --- |
| CCn1nc(C)c(F)c1C(=O)Nc1nc2cc(C(N)=O)cc3c2n1[C@@H](C(C)C)CO3 [Example 54, (S)-2-(1-Ethyl-4-fluoro-3-methyl-1H-pyrazole-5-carboxamido)-3-isopropyl-3,4-dihydro-5-oxa-1,2a-diazaacenaphthylene-7-carboxamide] | < 4.78 | 7.79 fold | 2.29 fold | – |
| CCn1nc(C)c(Cl)c1C(=O)Nc1nc2cc(C(N)=O)cc3c2n1[C@@H](C(C)C)CO3 [Example 55, (S)-2-(4-chloro-1-ethyl-3-methyl-1H-pyrazole-5-carboxamido)-3-isopropyl-3,4-dihydro-5-oxa-1,2a-diazaacenaphthylene-7-carboxamide] | – | 2.96 fold | 1.38 fold | inactive |
| CCn1nc(C)c(Br)c1C(=O)Nc1nc2cc(C(N)=O)cc3c2n1[C@@H](C(C)C)CO3 [Example 56, (S)-2-(4-Bromo-1-ethyl-3-methyl-1H-pyrazole-5-carboxamido)-3-isopropyl-3,4-dihydro-5-oxa-1,2a-diazaacenaphthylene-7-carboxamide] | – | 1.17 fold | 1.16 fold | inactive |
| CCn1nc(C)cc1C(=O)Nc1nc2cc(C(N)=O)cc3c2n1CCCO3 [Example 57, 1-(1-Ethyl-3-methyl-1H-pyrazole-5-carboxamido)-8,9-dihydro-7H-6-oxa-2,9a-diazabenzo[cd]azulene-4-carboxamide] | – | 3.59 fold | 1.34 fold | inactive |
| CCn1nc(C)cc1C(=O)Nc1nc2cc(C(N)=O)cc3c2n1[C@@H](CO)CO3 [Example 58, (S)-2-(1-ethyl-3-methyl-1H-pyrazole-5-carboxamido)-3-(hydroxymethyl)-3,4-dihydro-5-oxa-1,2a-diazaacenaphthylene-7-carboxamide] | < 4.30 | 0.95 fold | 1.06 fold | – |
| CCn1nc(C)cc1C(=O)Nc1nc2cc(C(N)=O)cc3c2n1CC1(COC1)CO3 [Example 59, 1-(1-Ethyl-3-methyl-1H-pyrazole-5-carboxamido)-7H,9H-6-oxa-2,9a-diazaspiro[benzo[cd]azulene-8,3′-oxetan]-1,2a,2a^1(5a),4-tetraene-4-carboxamide] | < 4.67 | 1.13 fold | 1.22 fold | – |

Results, then the compound that gave them:

| pEC50 (STING) | Fold change related to DMSO control, HAQ (STING variants (HAQ)) | Fold change related to DMSO control, WT (STING variants (WT)) | hIFNβ ELISA (EC50, μM) (STING) | Structure (SMILES) |
| --- | --- | --- | --- | --- |
| 4.80 | 73.46 fold | 6.55 fold | – | CCn1nc(C)cc1C(=O)Nc1nc2cc(C(N)=O)cc3c2n1CCCN3C [Example 60, 1-(1-ethyl-3-methyl-1H-pyrazole-5-carboxamido)-6-methyl-6,7,8,9-tetrahydro-2,6,9a-triaza benzo[cd]azulene-4-carboxamide] |
| < 4.78 | 8.67 fold | 1.90 fold | – | CCn1nc(C)cc1C(=O)Nc1nc2cc(C(N)=O)cc3c2n1CC1(CC1)CO3 [Example 61, 1-(1-ethyl-3-methyl-1H-pyrazole-5-carboxamido)-7H,9H-6-oxa-2,9a-diazaspiro[benzo[cd]azulene-8,1′-cyclopropan]-1,2a,3,5-tetraene-4-carboxamide] |
| < 4.57 | 13.40 fold | 1.84 fold | – | CCn1nc(C)cc1C(=O)Nc1nc2cc(C(N)=O)cc3c2n1[C@@H](C)CCO3 [Example 62, (S)-1-(1-ethyl-3-methyl-1H-pyrazole-5-carboxamido)-9-methyl-8,9-dihydro-7H-6-oxa-2,9a-diazabenzo[cd]azulene-4-carboxamide] |
